The results in this text go back to patent US9120785B2, “Pyridyl aminopyridines as Syk inhibitors” (Merck Sharp & Dohme Corp., priority 2011, dated 2015).

In the test the target is recombinant human GST-Syk (Homo sapiens (Human), UniProt P43405). Kind of test: Homogeneous Time-Resolved Fluorescence (HTRF) assay for the recombinant human Syk enzyme. To be noted: recombinant human GST-Syk 5 pM, ATP 25 μM; class symbols; read-out: rhSyk activity (IC50). The format is biochemical. As to the method:
Homogeneous Time-Resolved Fluorescence (HTRF) Assay for the Recombinant Human Syk Enzyme:
A recombinant GST-hSyk fusion protein was used to measure potency of compounds to inhibit human Syk activity. The recombinant human GST-Syk ([…] #08-176) (5 pM final concentration) was incubated with various concentrations of the inhibitor diluted in DMSO (0.1% final concentration) for 10 minutes at room temperature in 15 mM Tris-HCl (pH 7.5), 0.01% tween 20, 2 mM DTT in 384 well plate format. To initiate the reaction the biotinylated substrate peptide (250 nM final concentration) that contains the phosphorylation site for Syk was added with magnesium (5 mM final concentration) and ATP (25 μM final concentration). Final volume of the reaction was 10 μL. Phosphorylation of the peptide was allowed to proceed for 45 minutes at room temperature. To quench the reaction and detect the phosphorylated product, 2 nM of a Europium-anti-phosphotyrosine antibody (Perkin Elmer #AD0161) and 70 nM SA-APC (Perkin-Elmer #CR130-100) were added together in 15 mM Tris pH 7.5, 40 mM EDTA, 0.01% tween 20. Final volume of the quenching solution was 10 μL. The resulting HTRF signal was measured after 30 minutes on an EnVision (Perkin-Elmer) reader using a time-resolved fluorescence protocol.
For `Cc1ccnc(Nc2cccc(-c3cnc(C(C)(O)[C@H]4CC[C@H](C(=O)O)C(C)(C)C4)s3)n2)c1` (stereo partly drawn) [Example 14-47, (1S,4S)-4-[1-hydroxy-1-(5-{6-[(4-methylpyridin-2-yl)amino]pyridin-2-yl}-1,3-thiazol-2-yl)ethyl]-2,2-dimethylcyclohexanecarboxylic acid], the IC50 is at most 100 nM.

Regarding `Cc1cc(Nc2cc(C(F)(F)F)ccn2)nc(-c2cnc(C(C)(O)C3CCC(C(=O)O)C(C)C3)s2)c1` (single isomer, unassigned) [Example 15-1, 4-{1-hydroxy-1-[5-(4-methyl-6-{[4-(trifluoromethyl)pyridin-2-yl]amino}pyridin-2-yl)-1,3-thiazol-2-yl]ethyl}-2-methylcyclohexanecarboxylic acid], the concentration for half-maximal inhibition (IC50) was at most 100 nM.

`Cc1cc(Nc2cc(C3CC3)ccn2)nc(-c2cnc(C(C)(O)[C@H]3CC[C@H](C(=O)O)CC3)s2)c1` (relative stereo) [Example 14-7, trans-4-[1-(5-{6-[(4-cyclopropylpyridin-2-yl)amino]-4-methylpyridin-2-yl}-1,3-thiazol-2-yl)-1-hydroxyethyl]cyclohexanecarboxylic acid]: the half-inhibitory concentration (IC50) was at most 100 nM.

As to `Cc1cc(Nc2cc(C(F)(F)F)ccn2)nc(-c2cnc(C(O)([C@H]3CC[C@H](C(=O)O)CC3)C(F)(F)F)s2)c1` (single isomer, unassigned) [Example 14-19, trans-4-{2,2,2-trifluoro-1-hydroxy-1-[5-(4-methyl-6-{[4-(trifluoromethyl)pyridin-2-yl]amino}pyridin-2-yl)-1,3-thiazol-2-yl]ethyl}cyclohexanecarboxylic acid], the half-maximal inhibitory concentration (IC50) is at most 100 nM.

For the molecule `Cc1cc(Nc2cc(C(F)(F)F)ccn2)nc(-c2cnc([C@@](C)(O)[C@H]3CNC(=O)C3)s2)c1` [Example 14-55, (4R)-4-{(1S)-1-hydroxy-1-[5-(4-methyl-6-{[4-(trifluoromethyl)pyridin-2-yl]amino}pyridin-2-yl)-1,3-thiazol-2-yl]ethyl}pyrrolidin-2-one], the IC50 was at most 100 nM.

For the molecule `CCC(O)(c1ncc(-c2cc(C)cc(Nc3cc(OC(C)C)ccn3)n2)s1)[C@H]1CC[C@H](C(=O)O)CC1` (single isomer, unassigned) [Example 14-21, trans-4-{1-hydroxy-1-[5-(4-methyl-6-{[4-(propan-2-yloxy)pyridin-2-yl]amino}pyridin-2-yl)-1,3-thiazol-2-yl]propyl}cyclohexanecarboxylic acid], the concentration for half-maximal inhibition (IC50) is at most 100 nM.

As to `Cc1cc(Nc2cc(C(F)(F)F)ccn2)nc(-c2cnc(C(C)(O)C3CCC(C(=O)O)C(C)C3)s2)c1` (single isomer, unassigned) [Example 15-13, 4-{1-hydroxy-1-[5-(4-methyl-6-{[4-(trifluoromethyl)pyridin-2-yl]amino}pyridin-2-yl)-1,3-thiazol-2-yl]ethyl}-2-methylcyclohexanecarboxylic acid], the IC50 was at most 100 nM.

As to `COc1ccnc(Nc2cccc(-c3cnc(C(C)(O)[C@H]4CC[C@H](C(=O)O)C(C)(C)C4)s3)n2)c1` (stereo partly drawn) [Example 14-48, (1S,4S)-4-[1-hydroxy-1-(5-{6-[(4-methoxypyridin-2-yl)amino]pyridin-2-yl}-1,3-thiazol-2-yl)ethyl]-2,2-dimethylcyclohexanecarboxylic acid], the half-maximal inhibitory concentration (IC50) was at most 100 nM.

With `Cc1cc(Nc2cc(C(F)(F)F)ccn2)nc(-c2cnc(C(O)[C@H]3CC[C@H](C(=O)O)CC3)s2)c1` (single isomer, unassigned) [Example 14-29, trans-4-{hydroxy[5-(4-methyl-6-{[4-(trifluoromethyl)pyridin-2-yl]amino}pyridin-2-yl)-1,3-thiazol-2-yl]methyl}cyclohexanecarboxylic acid], the half-inhibitory concentration (IC50) was at most 100 nM.

`Cc1cc(Nc2cc(C(F)(F)F)ccn2)nc(-c2cnc(C(C)(O)[C@H]3CC[C@H](C(=O)O)C(C)(C)C3)s2)c1` (stereo partly drawn) [Example 14-31, (1S,4S)-4-{1-hydroxy-1-[5-(4-methyl-6-{[4-(trifluoromethyl)pyridin-2-yl]amino}pyridin-2-yl)-1,3-thiazol-2-yl]ethyl}-2,2-dimethylcyclohexanecarboxylic acid]: the IC50 is at most 100 nM.

On to `CC(O)(c1ncc(-c2cc(C(F)F)cc(Nc3cc(C(F)(F)F)ccn3)n2)s1)[C@H]1CC[C@H](C(=O)O)CC1` (single isomer, unassigned) [Example 14-53, trans-4-{1-[5-(4-(difluoromethyl)-6-{[4-(trifluoromethyl)pyridin-2-yl]amino}pyridin-2-yl]-1,3-thiazol-2-yl}-1-hydroxyethyl)cyclohexanecarboxylic acid], for which the 50% inhibitory concentration (IC50) was at most 100 nM.

For `Cc1cc(Nc2cc(C(F)(F)F)ccn2)nc(-c2cnc(C(C)(O)C3CCNC3)s2)c1` (centres unmarked) [Example 12, 1-[5-(4-Methyl-6-{[4-(trifluoromethyl)pyridin-2-yl]amino}pyridin-2-yl)-1,3-thiazol-2-yl]-1-(pyrrolidin-3-yl)ethanol], the IC50 is at most 100 nM.

For the molecule `CC(O)(c1ncc(-c2cccc(Nc3cc(C(F)(F)F)ccn3)n2)s1)[C@H]1CC[C@H](C(=O)O)CC1` (single isomer, unassigned) [Example 7, trans-4-{(1R or 1S)-1-hydroxy-1-[5-(6-{[4-(trifluoromethyl)pyridin-2-yl]amino}pyridin-2-yl)-1,3-thiazol-2-yl]ethyl}cyclohexanecarboxylic acid], the half-inhibitory concentration (IC50) was at most 100 nM.

For the molecule `CCCCOC(=O)[C@H]1CC[C@H](C(C)(O)c2ncc(-c3cc(C)cc(Nc4cc(C5CC5)ccn4)n3)s2)CC1` (relative stereo) [Example 14-6, butyl trans-4-[1-(5-{6-[(4-cyclopropylpyridin-2-yl)amino]-4-methylpyridin-2-yl}-1,3-thiazol-2-yl)-1-hydroxyethyl]cyclohexanecarboxylate], the IC50 lay in the range of 100 to 1000 nM.

As for `CC(C)c1ccnc(Nc2cccc(-c3cnc(C(C)(O)[C@H]4CC[C@H](C(=O)O)CC4)s3)n2)c1` (relative stereo) [Example 14-43, trans-4-{1-hydroxy-1-[5-(6-{[4-(propan-2-yl)pyridin-2-yl]amino}pyridin-2-yl)-1,3-thiazol-2-yl]ethyl}cyclohexanecarboxylic acid], the half-maximal inhibitory concentration (IC50) was at most 100 nM.

Consider `Cc1cc(Nc2cc(C(C)C)ccn2)nc(-c2cnc(C(C)(O)[C@H]3CC[C@H](C(=O)O)CC3)s2)c1` (relative stereo) [Example 14-8, trans-4-{1-hydroxy-1-[5-(4-methyl-6-{[4-(propan-2-yl)pyridin-2-yl]amino}pyridin-2-yl)-1,3-thiazol-2-yl]ethyl}cyclohexanecarboxylic acid], for which the half-maximal inhibitory concentration (IC50) is at most 100 nM.

`Cc1cc(Nc2cc(C(F)(F)F)ccn2)nc(-c2cnc(C(C)(O)C3CCC(C(=O)O)C(C)C3)s2)c1` (single isomer, unassigned) [Example 15-4, 4-{1-hydroxy-1-[5-(4-methyl-6-{[4-(trifluoromethyl)pyridin-2-yl]amino}pyridin-2-yl)-1,3-thiazol-2-yl]ethyl}-2-methylcyclohexanecarboxylic acid]: the IC50 is at most 100 nM.

Turning to `Cc1cc(Nc2cc(OC(C)C)ccn2)nc(-c2cnc(C(O)([C@H]3CC[C@H](C(=O)O)CC3)C(F)(F)F)s2)c1` (single isomer, unassigned) [Example 14-25, trans-4-{2,2,2-trifluoro-1-hydroxy-1-[5-(4-methyl-6-{[4-(propan-2-yloxy)pyridin-2-yl]amino}pyridin-2-yl)-1,3-thiazol-2-yl]ethyl}cyclohexanecarboxylic acid], the IC50 is at most 100 nM.

With `CCC(O)(c1ncc(-c2cc(C)cc(Nc3cc(OC(C)C)ccn3)n2)s1)[C@H]1CC[C@H](C(=O)O)CC1` (single isomer, unassigned) [Example 14-22, trans-4-{1-hydroxy-1-[5-(4-methyl-6-{[4-(propan-2-yloxy)pyridin-2-yl]amino}pyridin-2-yl)-1,3-thiazol-2-yl]propyl}cyclohexanecarboxylic acid], the IC50 was at most 100 nM.

With `Cc1cc(Nc2cc(C(F)(F)F)ccn2)nc(-c2cnc(C(C)(O)C3CCC(C(=O)O)C(C)C3)s2)c1` (centres unmarked) [Example 15-17, 4-{1-hydroxy-1-[5-(4-methyl-6-{[4-(trifluoromethyl)pyridin-2-yl]amino}pyridin-2-yl)-1,3-thiazol-2-yl]ethyl}-2-methylcyclohexanecarboxylic acid], the concentration for half-maximal inhibition (IC50) is at most 100 nM.

For `Cc1cc(Nc2cc(C(F)(F)F)ccn2)nc(-c2cnc(C(C)(O)C3CCC(C(=O)O)C(C)C3)s2)c1` (single isomer, unassigned) [Example 15-2, 4-{1-hydroxy-1-[5-(4-methyl-6-{[4-(trifluoromethyl)pyridin-2-yl]amino}pyridin-2-yl)-1,3-thiazol-2-yl]ethyl}-2-methylcyclohexanecarboxylic acid], the IC50 was at most 100 nM.

Consider `COc1ccnc(Nc2cccc(-c3cnc(C(C)(O)[C@H]4CC[C@H](C(=O)O)CC4)s3)n2)c1` (relative stereo) [Example 14-41, trans-4-[1-hydroxy-1-(5-{6-[(4-methoxypyridin-2-yl)amino]pyridin-2-yl}-1,3-thiazol-2-yl)ethyl]cyclohexanecarboxylic acid], for which the concentration for half-maximal inhibition (IC50) was at most 100 nM.

Regarding `Cc1cc(Nc2cc(C(F)(F)F)ccn2)nc(-c2cnc(C(C)(O)C3CCC(C(=O)O)C(C)C3)s2)c1` (single isomer, unassigned) [Example 15-11, 4-{1-hydroxy-1-[5-(4-methyl-6-{[4-(trifluoromethyl)pyridin-2-yl]amino}pyridin-2-yl)-1,3-thiazol-2-yl]ethyl}-2-methylcyclohexanecarboxylic acid], the IC50 is at most 100 nM.
